Structures can show the parent of a compound that is named as a salt. Where a SMILES comes first, the peptide text is derived from it.
What was measured:
[1] = biological target: T1, α2 -macroglobulin-trypsin complex (α2 M-Try) (Bos taurus, UniProt P00760); assay: Relative reactivity of substrate with α2 M-Try (absorbancy at 405 nm); format: biochemical, Bovine; details: substrate 10 mM/l; α2 M-Try 1/20 dilution; Bistrispropane 100 mmol, NaCl 150 mmol, pH 8.7; 37° C. 10 minutes; absorbancy 405 nm; relative to S-2222 10 mM = 1.0
T1 construct: purchased SIGMA (Try); Boehringer (α2 M)
T1 sequence (P00760 24-246): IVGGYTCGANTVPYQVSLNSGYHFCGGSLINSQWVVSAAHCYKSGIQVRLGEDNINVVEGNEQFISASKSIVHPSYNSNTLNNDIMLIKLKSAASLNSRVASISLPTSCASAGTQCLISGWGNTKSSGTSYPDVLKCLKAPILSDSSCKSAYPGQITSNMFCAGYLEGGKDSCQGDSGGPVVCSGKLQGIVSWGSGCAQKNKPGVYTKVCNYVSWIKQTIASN
T1 sequence (Q7SIH1 24-1510 partner): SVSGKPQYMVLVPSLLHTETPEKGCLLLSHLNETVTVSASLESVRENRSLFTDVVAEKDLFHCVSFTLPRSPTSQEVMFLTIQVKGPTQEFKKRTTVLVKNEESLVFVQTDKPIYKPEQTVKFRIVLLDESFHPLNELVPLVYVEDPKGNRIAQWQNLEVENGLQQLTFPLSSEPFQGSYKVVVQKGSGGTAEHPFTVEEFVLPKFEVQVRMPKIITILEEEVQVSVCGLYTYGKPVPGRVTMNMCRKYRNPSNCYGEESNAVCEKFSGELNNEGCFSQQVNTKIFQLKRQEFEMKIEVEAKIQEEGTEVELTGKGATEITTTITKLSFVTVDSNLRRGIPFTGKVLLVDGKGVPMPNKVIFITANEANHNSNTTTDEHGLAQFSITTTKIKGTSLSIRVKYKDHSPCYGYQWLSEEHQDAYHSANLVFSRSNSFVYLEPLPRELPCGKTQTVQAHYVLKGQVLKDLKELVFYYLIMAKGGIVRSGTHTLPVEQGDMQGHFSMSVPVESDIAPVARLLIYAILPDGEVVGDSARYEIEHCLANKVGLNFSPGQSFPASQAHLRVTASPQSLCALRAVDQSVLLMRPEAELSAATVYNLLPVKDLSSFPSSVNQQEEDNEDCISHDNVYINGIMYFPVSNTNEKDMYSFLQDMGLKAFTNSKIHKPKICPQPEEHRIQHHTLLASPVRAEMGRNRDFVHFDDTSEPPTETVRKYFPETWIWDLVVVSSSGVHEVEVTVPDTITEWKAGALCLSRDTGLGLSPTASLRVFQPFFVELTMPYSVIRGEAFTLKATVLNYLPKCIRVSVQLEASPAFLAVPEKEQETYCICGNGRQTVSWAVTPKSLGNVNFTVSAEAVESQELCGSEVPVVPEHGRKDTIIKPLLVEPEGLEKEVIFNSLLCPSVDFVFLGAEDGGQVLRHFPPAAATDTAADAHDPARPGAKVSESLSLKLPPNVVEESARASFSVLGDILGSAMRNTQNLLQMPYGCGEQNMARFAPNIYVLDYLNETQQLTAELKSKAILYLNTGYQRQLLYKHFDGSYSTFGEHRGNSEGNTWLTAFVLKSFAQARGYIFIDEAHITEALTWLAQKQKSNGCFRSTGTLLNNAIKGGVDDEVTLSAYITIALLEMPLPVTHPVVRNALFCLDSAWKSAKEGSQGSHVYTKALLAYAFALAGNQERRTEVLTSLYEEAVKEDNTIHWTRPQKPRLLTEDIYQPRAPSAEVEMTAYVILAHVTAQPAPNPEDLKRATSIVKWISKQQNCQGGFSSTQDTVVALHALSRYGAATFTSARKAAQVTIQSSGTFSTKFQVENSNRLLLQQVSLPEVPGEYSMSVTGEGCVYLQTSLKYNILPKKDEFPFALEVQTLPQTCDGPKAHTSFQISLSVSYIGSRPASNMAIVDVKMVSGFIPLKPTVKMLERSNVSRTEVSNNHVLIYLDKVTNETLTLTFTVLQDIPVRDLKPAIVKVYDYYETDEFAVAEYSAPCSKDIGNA
Protocol: (§1) Specificity of the synthesized new substrate was examined by reacting with each enzyme. Details of reagents used are as describved below.
(§2) (2) Buffer: Kind of buffer, NaCl and its concentration and pH (25° C.) were set as shown below depending upon enzyme. […]
(§3) (3) Enzyme used: Enzyme used and its source, etc. are as follows. […]
(§4) (4) Terminate solution: 10% acetic acid aqueous solution.
(§5) Buffer, 0.5 ml and 0.1 ml of substrate solution are charged in a silicone-treated hard glass test tube or plastic test tube. The mixture is previously heated for 5 minutes in a thermostat at 37° C.
Then, 0.05 ml of enzyme reagent is added to the mixture to perform enzyme reaction at 37° C. for 10 minutes.
Accurately 10 minutes after, 1.0 ml of the terminate solution is added to stop the enzyme reaction. Then the reaction mixture is allowed to stand at 37° C. for 10 minutes and its absorbancy is measured at 405 nm.
(§6) Values in the tables indicate relative values when absorbancy of substrate S-2222, 10 mM, was made 1.0.

Trypsin = biological target: T2, Trypsin (Bos taurus, UniProt P00760); assay: Relative reactivity of substrate with trypsin (absorbancy at 405 nm); format: biochemical, Bovine; details: substrate 10 mM/l; trypsin 0.07 U/ml; Tris 50 mmol, NaCl 150 mmol, pH 8.1; 37° C. 10 minutes; absorbancy 405 nm; relative to S-2222 10 mM = 1.0
T2 construct: purchased Boehringer
T2 sequence (P00760 24-246): T1 sequence (P00760 24-246)
Protocol: as §1, §2, §3, §4
as §5, with “for 10” for “for 5”, “C. Then, 0.05 ml of enzyme reagent is added to the mixture to perform enzyme reaction at 37° C. for 10 minutes.” for “C.”
Accurately 10 minutes after, 2.5 ml of the terminate solution is added to stop the enzyme reaction. Then the reaction mixture is allowed to stand at 37° C for 10 minutes and its absorbancy is measured at 405 nm.
as §6

Normal serum = assay: Relative reactivity of substrate with normal serum (absorbancy at 405 nm); format: biochemical; details: substrate 10 mM/l; undiluted human normal serum; Tris 50 mmol, NaCl 150 mmol, pH 8.5; 37° C. 5 minutes; absorbancy 405 nm; relative to S-2222 10 mM = 1.0
Protocol: as §1, §2, §3
Normal Human -- -- undiluted
as §4
as §5, with “C. Then, 0.1 ml of normal serum is added to the mixture to perform enzyme reaction at 37° C. for 5 minutes.” for “C.”
Accurately 5 minutes after, 2.0 ml of the terminate solution is added to stop the enzyme reaction. Then the reaction mixture is allowed to stand at 37° C. for 10 minutes and its absorbancy is measured at 405 nm.
as §6

[2] = Solubility of the substrates in water; format: physicochemical
From the text: (B) Solubility of the substrates of this invention and known substrates in water were examined.

Molecule	Relative Reactivity to Enzyme (relative value of absorbance) α2 M-Try [1]	Relative Reactivity to Enzyme (relative value of absorbance) Try (Trypsin)	Relative Reactivity to Enzyme (relative value of absorbance) Normal Serum (Normal serum)	Solubility [2]
Cl.Cl.NC(N)=NCCC[C@H](NC(=O)CNC(=O)[C@H](N)CCC(=O)OCc1ccccc1)C(=O)Nc1ccc([N+](=O)[O-])cc1 [Substrate No. 2] (HELM PEPTIDE1{[dE].G.R.[O=[N+]([O-])c1ccc(N[*:1])cc1]}|CHEM1{[c1ccc(CO[*:1])cc1]}$PEPTIDE1,CHEM1,1:R3-1:R1$$$V2.0)	1.01	0.71	0.12	
CCCN(CCC)C(=O)CC[C@@H](N)C(=O)NCC(=O)N[C@@H](CCCN=C(N)N)C(=O)Nc1ccc([N+](=O)[O-])cc1.Cl.Cl [Substrate No. 21]	1.46	0.74	0.20	
H-D-Glu(OCH.(C2 H5)2)-Gly-Arg-ANBS.2HCl [Substrate No. 1]	1.19	0.84	0.03	
CC(C)OC(=O)CC[C@@H](N)C(=O)NCC(=O)N[C@@H](CCCN=C(N)N)C(=O)Nc1ccc([N+](=O)[O-])cc1.Cl.Cl [Substrate No. 3] (HELM PEPTIDE1{[dE].G.R.[O=[N+]([O-])c1ccc(N[*:1])cc1]}|CHEM1{[CC(C)O[*:1]]}$PEPTIDE1,CHEM1,1:R3-1:R1$$$V2.0)	1.20	0.67	0.41	
CC(C)[C@H](NC(=O)OCc1ccccc1)C(=O)NCC(=O)N[C@@H](CCCNC(=N)N)C(=O)Nc1ccc([N+](=O)[O-])cc1 [CHR-TRY, Z-Val-Gly-Arg-pNA-HCl, reference compound] (HELM PEPTIDE1{[O=C(OCc1ccccc1)[*:2]].V.G.R.[O=[N+]([O-])c1ccc(N[*:1])cc1]}$$$$V2.0)	0.73	0.50	1.70	insoluble
Cl.Cl.NC(N)=NCCC[C@H](NC(=O)[C@@H]1CCCCN1C(=O)[C@H](N)Cc1ccccc1)C(=O)Nc1ccc([N+](=O)[O-])cc1 [S-2238, HDPhePipArgpNA.2HCl, reference compound]	0.68	0.39	5.50	
Bz-Ile-Glu(OR)-Gly-Arg-pNA.HCl; R=H and CH3 [S-2222, reference compound]	1.0	1.0	1.0	6 mM/l

From patent publication US5115099A, “Substrates for determination of enzyme activity and intermediates for synthesis of the substrates as well as process for producing the intermediates” (Nitto Boseki Co., Ltd., priority 1988, dated 1992)
